In PubChem BioAssay (NCI):
Several values for one entry are separate records, joined by “and”; a condition that tells them apart may be missing. Identical values can stand only once.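 These data come from cells grown in 96-well plates and exposed to compound for 48 hours at five concentrations. The concentration for 50% growth inhibition is given as GI50. TGI is the concentration that stops growth completely.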

How the values were obtained:
Test in all cases: inhibition of tumour cell growth, NCI panel, 48 h
[1] = system: MDA-MB-231 breast
[2] = system: NCI-H23 lung
[3] = system: SW-620 colon
[4] = system: HL-60(TB) leukemia
[5] = system: SN12C renal
[6] = system: CAKI-1 renal
[7] = system: OVCAR-5 ovarian
[8] = system: A498 renal

| Structure (SMILES) | GI50 [1] | TGI [1] | GI50 [2] | TGI [2] | GI50 [3] | TGI [3] | GI50 [4] | TGI [4] | GI50 [5] | TGI [5] | GI50 [6] [µM] | TGI [6] [µM] | GI50 [7] | TGI [7] | GI50 [8] | TGI [8] |
| --- | --- | --- | --- | --- | --- | --- | --- | --- | --- | --- | --- | --- | --- | --- | --- | --- |
| Cc1ccc(-c2cc(-c3ccc(C)cc3)nc(N3CCN(CCNc4ccnc5cc(Cl)ccc45)CC3)n2)cc1 | 2.52 µM | 9.19 µM | 3.63 µM | 17.5 µM | 1.82 µM | 6.32 µM | 2.42 µM | 11.6 µM | 4.71 µM | 14.7 µM | 7.56 | 16.4 | 3.84 µM | 17.6 µM | 9.69 µM | 30.4 µM |
| CCCCCCCCCCC[C@@H](C[C@H]1OC(=O)[C@H]1CCCCCC)OC(=O)[C@@H](CC(C)C)NC=O | 1.53 µM | 5.45 µM | 7.19 µM | 67.4 µM | 4.92 µM | 94.1 µM | 1.75 µM | 4.34 µM | 2.42 µM | 12.2 µM | 5.5 | > 100 | 21.7 µM | > 100 µM | 4.64 µM | 29.9 µM |
| O=C(Cc1csc2nc(-c3ccc(Br)cc3)cn12)N/N=C/c1ccc(Cl)cc1Cl | 26.2 µM | > 100 µM | 25.6 µM | 56.4 µM | 23 µM | 60.2 µM | – | – | 84.7 µM | > 100 µM | 36.1 | > 100 | 28.6 µM | 67.3 µM | 29.3 µM | 62.7 µM |
| COc1ccc(/C=N\NC(=O)c2ccc3nc(-c4ccc(Cl)cc4)[nH]c3c2)cc1 | 2.42 µM | 5.45 µM | 2.74 µM | 11.2 µM | 2.41 µM | 5.58 µM | 13 µM | > 100 µM | 2.46 µM | 6.79 µM | 2.1 | 6.03 | 2.35 µM | 6.89 µM | 2.45 µM | 9.87 µM |
| COc1cc(C(=O)O/N=C(\N)Cc2cccc3ccccc23)cc(OC)c1OC | 4.12 µM | 18 µM | 11.4 µM | 29.8 µM | 11.7 µM | 27.8 µM | 5.35 µM | 36.5 µM | 17.4 µM | 42.3 µM | 5.91 | 19.5 | 13 µM | 26.5 µM | 5.79 µM | 60.7 µM |
| COc1cnc2c(c1)C(=O)c1c-2n(CCCNCCN2CCOCC2)c(=O)c2cc([N+](=O)[O-])ccc12 | 0.63 µM | 2.65 µM | 0.152 µM | 1.61 µM | 0.128 µM | 8.68 µM | 0.104 µM | 0.818 µM | 0.0795 µM | 4.59 µM | 0.0433 | 7.31 | 0.448 µM | 3.87 µM | – | – |
| CC(C)=CC(=O)N[C@@H]1CC2CCC3C(CC[C@@]4(C)C3CC[C@@H]4C(C)N(C)C)[C@@]2(C)C[C@@H]1O (stereo partly drawn) | 5.77 µM | 19.8 µM | 5.06 µM | 39.1 µM | 2.86 µM | 10.5 µM | 1.61 µM | 6.14 µM | 9.11 µM | > 44.5 µM | 5.96 | 23.9 | 10.6 µM | 38.2 µM | 5.19 µM | 28.8 µM |
| O=c1c2c(=NCCN3CCCC3)cc3c(=O)n(CCCN4CCOCC4)c(=O)c4ccc(c(O)n1CCCN1CCOCC1)c2c4-3 | 0.197 µM | 0.919 µM | 0.118 µM | 0.627 µM | < 0.0192 µM | 1.07 µM | 0.338 µM | 1.43 µM | 0.138 µM | 4.54 µM | 0.218 | 1.41 | 0.113 µM | 1.21 µM | 0.173 µM | 0.981 µM |
| COc1ccc(/C=C\c2cc(OC)c(OC)c(OC)c2)cc1OCC(=O)Nc1nc2ccccc2s1 | 0.179 µM | > 100 µM | 0.0966 µM | > 100 µM | 0.0359 µM | > 100 µM | 0.0275 µM | > 100 µM | 0.431 µM | > 100 µM | 0.309 | > 35.8 | 31.9 µM | > 100 µM | 0.346 µM | > 83.4 µM |
| O=C1/C(=C/c2ccc(Cl)cc2)CN(C(=O)CCN2CCC(=NO)CC2)C/C1=C\c1ccc(Cl)cc1 | 0.637 µM | 1.89 µM | 1.13 µM | 2.63 µM | 0.179 µM | 0.467 µM | 1.37 µM | 4.9 µM | 0.637 µM | 1.68 µM | 0.649 | 1.85 | 1.36 µM | 2.85 µM | 1.15 µM | 2.41 µM |
| c1ccc2cc(C[n+]3ccn(Cc4ccc5ccccc5n4)c3)ccc2c1 | 0.432 µM and 2.22 µM | 1.97 µM and 8.2 µM | 0.311 µM and 2.7 µM | 3.23 µM and 14.6 µM | 0.734 µM and 6.27 µM | 11.8 µM and 22.1 µM | 0.214 µM and 0.827 µM | 0.653 µM and 3.05 µM | 0.347 µM and 2.82 µM | 6.15 µM and 11 µM | – | – | 0.588 µM and 3.58 µM | 9.52 µM and 16.7 µM | 0.492 µM and 2.49 µM | 3.9 µM and 24.1 µM |
| CN(C)c1ccc2cc3ccc(N(C)C)cc3nc2c1 | – | 2.89 µM | – | 6.17 µM | – | – | – | 3.66 µM | – | 7.28 µM | – | 13.5 | – | 9.82 µM | – | 9.01 µM |
| O=C(Oc1ccccc1Cl)c1ccccc1Nc1cccc(C(F)(F)F)c1 | 20.2 µM | 48.3 µM | 19.8 µM | 73.7 µM | 8.07 µM | 54.4 µM | – | – | 23.4 µM | > 100 µM | 20.7 | 49 | 30.6 µM | 94.7 µM | 24.8 µM | 54.8 µM |
| Oc1ccc2ccccc2c1N=Nc1ccc(Cl)cc1 | – | > 100 µM | – | > 100 µM | – | > 100 µM | – | > 100 µM | – | > 100 µM | – | > 100 | – | > 100 µM | – | – |
| COc1ccc(-n2cc(-c3cc(OC)c(OC)c(OC)c3)[nH]c2=S)cc1Cl | 7.7 µM | 49.8 µM | 46.4 µM | > 100 µM | > 100 µM | > 100 µM | > 100 µM | > 100 µM | 46.7 µM | > 100 µM | 4.86 | 33.7 | 28.3 µM | > 100 µM | – | – |
| CCCC(C)c1c(Cl)nc(Cl)nc1Cl (stereo not drawn) | – | > 100 µM | – | 18 µM | – | > 100 µM | – | > 100 µM | – | 48 µM | – | – | – | 39 µM | – | – |
| Cc1cc(NCc2cc(Nc3ccnc4cc(Cl)ccc34)ccc2F)nc(N2CCSCC2)n1 | 1.64 µM | 3.63 µM | 1.78 µM | 5.24 µM | – | – | – | – | – | – | 1.51 | 3.19 | 2.21 µM | 8.25 µM | 2.18 µM | 10.4 µM |
